Experiment in all cases: NCI tumour cell line growth inhibition, 48 h
For assay [1], the system named is CAKI-1 renal.
Assay [2] deals with LOX IMVI melanoma.
Assay [3] deals with TK-10 renal.
In assay [4] the test system is UACC-62 melanoma.
Assay [5] deals with SN12C renal.
The subject of assay [6] is COLO 205 colon.
Assay [7] concerns HS 578T breast.
Assay [8] deals with HOP-62 NSCLC.
Assay [9] concerns NCI-H522 lung.
Assay [10] concerns OVCAR-5 ovarian.

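In this assay, cells in 96-well plates receive the compound at five concentrations for 48 hours. Endpoints are linearly interpolated between the surrounding concentrations. TGI: concentration producing complete growth inhibition.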 Where a SMILES comes first, the peptide text is derived from it. [ ]: non-standard residue; d: D form. The star is where a group is joined. Phe(4-NO2) = N[CH](Cc1ccc([N+](=O)[O-])cc1)C(=O)O; Boc = CC(C)(C)OC(=O)*; OBn = c1ccc(CO*)cc1

As to `Cn1c(=O)c2c(nc(NCCCCl)n2CC(=O)O)n(C)c1=O`, the TGI in [1], in assay [2], in assay [3], in assay [4], in assay [5] and in assay [6] was over 100 µM in each case. Moreover, the TGI in [7], in assay [8], in [9] and in assay [10] was over 100 µM throughout.
As for `CC(C)Oc1c(-c2c(OC(C)C)c(=O)c2=O)c(=O)c1=O`, the TGI was over 100 µM in assay [1]; over 47.1 µM in [2]; over 100 µM in assay [3]; over 61.5 µM in [4]; over 62.7 µM in assay [5]; over 51.9 µM in assay [6]. For the same molecule, the TGI in [7] is over 67 µM; in assay [8] it was over 85.2 µM; in assay [9], over 27.7 µM; in [10] it was over 100 µM.
On to `Cc1cnoc1NC1=CC(=O)C(=O)c2ccccc21`, for which the TGI in assay [1] was over 100 µM; in [2] it was over 100 µM; in assay [3] it was over 100 µM; in [4] it was 29.9 µM; in [5], 3.53 µM; in assay [6] it was over 100 µM. In addition, the TGI in assay [7] is over 100 µM; in [8], over 100 µM; in [9], over 100 µM; in assay [10] it was 55.9 µM.
As to `COC(=O)CCC(NC(=O)OC(C)(C)C)C(=O)NC(Cc1ccc([N+](=O)[O-])cc1)C(=O)NCC(=O)OCc1ccccc1` (stereo not given) (Boc-Glu(OMe)-[Phe(4-NO2)]-Gly-OBn; configuration not given here), the TGI in assay [1] is over 100 µM; in [2] it was over 86.3 µM; in assay [3], over 100 µM; in assay [4], over 31.6 µM; in assay [5], over 100 µM; in assay [6], over 100 µM. For the same molecule, the TGI in [7] was over 64.4 µM; in assay [8], over 77.6 µM; in assay [9] it was over 100 µM; in assay [10], over 100 µM.
With `COc1cc2c3cc1Oc1c(O)c(OC)cc4c1[C@H](Cc1ccc(cc1)Oc1cc(ccc1O)C[C@H]3N(C)CC2)N(C)CC4`, the TGI in assay [1] was 86.3 µM; in assay [2], 17.8 µM; in [3], 48.6 µM; in assay [4] it was 33.4 µM; in assay [5] it was 34.6 µM; in [6] it was 28.5 µM. Also, the TGI in assay [7] turned out to be 64.9 µM; in assay [8] it was 43.8 µM; in assay [9], 27 µM; in [10], 58.6 µM.
Take `CCN(CC)Cc1nc2sc3c(c2c(=O)n1-c1ccccc1)CCCC3`: the TGI in assay [1] amounted to 56.9 µM; in [2] it was 28.7 µM; in [3], 30.9 µM; in assay [4] it was 30.4 µM; in assay [5], 37.8 µM; in assay [6] it was 43.6 µM. Moreover, the TGI was 93.6 µM in assay [7], 86.7 µM in assay [8], 44.9 µM in assay [9] and 63.1 µM in [10].
As for `NCCC(N)C(=O)O` (stereo not given), the TGI in [1], in assay [2], in assay [3], in assay [4], in assay [5] and in [6] was over 100 µM in each case. Moreover, the TGI in assay [7], in [8], in [9] and in [10] was over 100 µM each time.
As to `COc1cccc(N2C(=O)C3c4[nH]c5ccccc5c4C4c5ccccc5CCC4C3C2=O)c1` (stereo not given), the TGI in assay [1], in assay [2], in assay [3], in assay [4], in assay [5] and in [6] was over 10 µM in each case. The TGI in assay [7] was 7.06 µM; in assay [8], 6.81 µM; in [9], over 10 µM; in assay [10], over 10 µM.
With `O=C(Nc1sccc1S(=O)(=O)c1ccccc1)c1cccnc1`, the TGI is over 100 µM in assay [1]; over 100 µM in assay [2]; over 100 µM in [3]; over 100 µM in assay [4]; over 100 µM in assay [5]; 18 µM in [6]. Also, the TGI was over 100 µM in [7], over 100 µM in [8], over 85.4 µM in [9] and over 100 µM in [10].
For the molecule `O=C(Nc1ccccc1)O/N=C(/CBr)c1ccccc1`, the TGI was 31.7 µM in assay [1]; 16.3 µM in assay [2]; 33.8 µM in assay [3]; 26.7 µM in [4]; 25 µM in [5]; 32.9 µM in [6]. In addition, the TGI in [7] amounted to 90.6 µM; in assay [8] it was 68.7 µM; in [9] it was 29.3 µM; in assay [10], 36.1 µM.
In the case of `S=C1c2ccccc2NC(=NC2CCCC2)C2CSCN12` (stereo not given), the TGI in assay [1], in assay [2], in [3], in assay [4], in assay [5] and in assay [6] was over 100 µM in each case. The TGI in assay [7], in [8], in assay [9] and in [10] was over 100 µM each time.
As for `O=[N+]([O-])c1cccc(-c2csc(N=Nc3c(O)[nH]c4ccccc34)n2)c1`, the TGI in assay [1] is 47 µM; in [2], 42.5 µM; in [3] it was 33.9 µM; in [4] it was over 100 µM; in assay [5], 49.7 µM; in assay [6], over 100 µM. For the same molecule, the TGI in assay [7] is 45.7 µM; in assay [8], 59.6 µM; in [9] it was 36.6 µM; in [10], over 100 µM.

These data come from PubChem BioAssay (NCI).
